# Measurements: paper PMC8950173 (Pharmaceuticals, 2022)
# What was measured:
# [1] = target: T1, human recombinant HDAC1 (Homo sapiens, UniProt Q13547); assay: Inhibition assay HDAC1 (fluorogenic substrate ZMAL); assay type: biochemical; conditions: 60 min preincubation at 25 °C
# T1 construct: purchased BPS Bioscience Inc. 50051
# Procedure: (§1) In vitro inhibitory activities against HDAC1−3 and HDAC6 were measured as previously published with minor modifications. […] Subsequently, 50 µL trypsin solution (0.4 mg/mL trypsin in buffer: 50 mM Tris−HCl, pH = 8.0, 100 mM NaCl) was added, followed by additional 30 min of incubation at 37 °C. […] All compounds were tested at least twice in duplicates.
# [2] = target: T2, human recombinant HDAC6 (Homo sapiens, UniProt Q9UBN7); assay: Inhibition assay HDAC6 (fluorogenic substrate ZMAL); assay type: biochemical; conditions: from IC50 values
# T2 construct: purchased BPS Bioscience Inc. 50006
# T2 sequence (Q9UBN7 1-1215): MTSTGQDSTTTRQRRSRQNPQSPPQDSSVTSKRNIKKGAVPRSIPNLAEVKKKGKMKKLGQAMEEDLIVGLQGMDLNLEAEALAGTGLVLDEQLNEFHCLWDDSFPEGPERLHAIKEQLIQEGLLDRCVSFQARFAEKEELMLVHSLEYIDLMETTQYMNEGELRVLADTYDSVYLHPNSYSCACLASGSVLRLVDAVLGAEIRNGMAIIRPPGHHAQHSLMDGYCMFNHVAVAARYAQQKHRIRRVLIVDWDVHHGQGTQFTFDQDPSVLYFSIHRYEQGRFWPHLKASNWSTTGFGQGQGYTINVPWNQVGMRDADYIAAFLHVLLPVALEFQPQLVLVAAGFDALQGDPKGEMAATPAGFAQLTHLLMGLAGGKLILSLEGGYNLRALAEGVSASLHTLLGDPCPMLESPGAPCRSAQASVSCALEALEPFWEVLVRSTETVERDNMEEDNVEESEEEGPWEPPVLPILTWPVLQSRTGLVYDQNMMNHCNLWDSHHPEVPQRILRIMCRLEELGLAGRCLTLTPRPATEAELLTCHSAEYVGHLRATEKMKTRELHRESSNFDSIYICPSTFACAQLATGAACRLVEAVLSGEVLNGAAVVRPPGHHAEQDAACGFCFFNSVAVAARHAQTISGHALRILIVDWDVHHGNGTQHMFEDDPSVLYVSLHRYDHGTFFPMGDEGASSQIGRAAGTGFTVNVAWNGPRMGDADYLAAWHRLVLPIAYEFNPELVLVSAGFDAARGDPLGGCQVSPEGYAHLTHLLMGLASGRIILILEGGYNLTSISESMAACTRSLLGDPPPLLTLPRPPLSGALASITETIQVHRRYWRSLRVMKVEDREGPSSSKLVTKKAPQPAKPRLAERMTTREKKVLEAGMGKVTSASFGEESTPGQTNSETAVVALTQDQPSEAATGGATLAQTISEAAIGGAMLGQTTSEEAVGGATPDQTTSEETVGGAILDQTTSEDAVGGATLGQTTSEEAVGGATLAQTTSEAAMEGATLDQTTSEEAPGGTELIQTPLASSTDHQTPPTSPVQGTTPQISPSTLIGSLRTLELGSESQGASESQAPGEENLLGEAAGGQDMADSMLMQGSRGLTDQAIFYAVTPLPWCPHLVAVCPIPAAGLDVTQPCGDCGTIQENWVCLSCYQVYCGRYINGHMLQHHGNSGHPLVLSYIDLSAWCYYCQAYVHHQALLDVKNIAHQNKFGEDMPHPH
# Procedure: as §1
# [3] = Lipophilicity logD7.4, shake-flask method n-octanol/PBS; assay type: physicochemical; conditions: n-octanol/PBS pH 7.4, room temperature, n = 8
# Procedure: Radiochemical stability of [^18F]BA3 was investigated in 0.9% NaCl solution (containing 10% EtOH) and in n-octanol at room temperature for 2 h. Samples were analysed by radio-RP-HPLC (see quality control). The LogD7.4 value of [^18F]BA3 was experimentally determined in n-octanol/phosphate-buffered saline (PBS, pH = 7.4) at room temperature by the shake-flask method as described previously. Briefly, small tracer amounts (~800 kBq) were added to a mixture of 3 mL n-octanol and 3 mL PBS. After shaking for 20 min, the samples were centrifuged (10,000 rpm, 5 min) and 1 mL aliquots of the organic as well as aqueous layer were taken and measured in a gamma counter (1480 WIZARD, Perkin Elmer, Turku, Finland). Another 1 mL aliquot of the organic layer was mixed with 2 mL n-octanol and 3 mL PBS and subjected to the same procedure until constant partition coefficient values had been obtained. The measurement was performed twice in quadruplicate.
# [4] = Dynamic PET/MR scan, brain uptake, baseline; assay type: in vivo
# Procedure: (§2) For the time of the experiments, female CD-1 mice (n = 6; 8–15 weeks; 29–43 g) were kept in a dedicated climatic chamber with free access to water and food under a 12:12 h dark:light cycle at a constant temperature (24 °C). The animals were anaesthetized (Anaesthesia Unit U-410, agntho’s, Lidingö, Sweden) with isoflurane (2.0%, 300 mL/min) delivered in a 60% oxygen/40% air mixture (Gas Blender 100 Series, MCQ instruments, Rome, Italy) and their body temperature maintained at 37 °C with a thermal bed system. For baseline studies [^18F]BA3 was injected into the tail vein (n = 2; 6.0 ± 0.6 MBq in 150 µL isotonic saline; 9.2 ± 0.7 nmol/kg; Am: 21 GBq/μmol, EOS) followed by a dynamic 60 min PET/MR scan (Mediso nanoScan®, Budapest, Hungary). Permeability-glycoprotein efflux transporter studies consisted in pre-treatment via i.v. injection of cyclosporine A (50 mg/kg in NaCl/DMSO/kolliphor, 7:1:2, v/v; n = 2) or of vehicle (NaCl/DMSO/kolliphor, 7:1:2, v/v; n = 2) 30 min prior to [^18F]BA3 (6.0 ± 0.9 MBq; 4.9 ± 0.7 nmol/kg; Am: 32–37 GBq/μmol, EOS). Each PET image was corrected for random coincidences, dead time, scatter and attenuation (AC), based on a whole body (WB) MR scan. The reconstruction parameters for the list mode data were 3D-ordered subset expectation maximization (OSEM), 4 iterations, 6 subsets, energy window: 400–600 keV, coincidence mode: 1–5, ring difference: 81. The mice were positioned prone in a special mouse bed (heated up to 37 °C), with the head fixed to a mouth piece for the anaesthetic gas supply with isoflurane in 40% air and 60% oxygen. The PET data were collected by a continuous WB scan during the entire investigation. Following the 60 min PET scan a T1 weighted WB gradient echo sequence (TR/TE: 20/6.4 ms, NEX: 1, FA: 25, FOV: 64 × 64 mm, Matrix: 128 × 128, STh: 0.5 mm) was performed for AC and anatomical orientation. […]. The respective brain regions were identified using the mouse brain atlas template Ma-Benveniste-Mirrione-FDG. The activity data are expressed as mean SUV of the overall ROI.
# [5] = Whole-body biodistribution derived from PET imaging; assay type: in vivo
# Procedure: as §2
# T1 sequence (Q13547 whole entry): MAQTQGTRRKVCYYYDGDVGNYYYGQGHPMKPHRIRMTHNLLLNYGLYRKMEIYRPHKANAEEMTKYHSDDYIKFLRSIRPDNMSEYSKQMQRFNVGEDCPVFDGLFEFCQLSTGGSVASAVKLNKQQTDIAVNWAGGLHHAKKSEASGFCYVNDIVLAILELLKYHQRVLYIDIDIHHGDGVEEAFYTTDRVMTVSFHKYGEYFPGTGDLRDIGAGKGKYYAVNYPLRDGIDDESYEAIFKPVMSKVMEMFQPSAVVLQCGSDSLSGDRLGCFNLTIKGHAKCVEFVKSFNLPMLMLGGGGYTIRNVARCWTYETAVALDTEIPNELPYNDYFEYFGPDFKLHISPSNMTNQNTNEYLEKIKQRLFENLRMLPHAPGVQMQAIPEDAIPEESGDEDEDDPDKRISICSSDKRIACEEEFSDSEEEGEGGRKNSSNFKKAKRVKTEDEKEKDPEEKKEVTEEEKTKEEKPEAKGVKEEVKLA
smiles,measurement,setting,value
CC([18F])C(=O)NCc1ccc(C(=O)Nc2cc(-c3ccsc3)ccc2N)cc1 (stereo not drawn) [[^18F]BA3],IC50,[1],4.8 ± 0.6 nM
same,specificity ratio HDAC1 over HDAC6,[2],> 2080
same,logD,[3],1.75 ± 0.16
same,brain peak standardized uptake value,"[4]; at 0.8 min, i.v.",~ 0.16 SUV
same,brain uptake plateau,"[4]; at 15 min, i.v.",~ 0.22 SUV
same,brain uptake after washout,[4]; at 60 min after i.v. administration,~ 0.16 SUV
same,activity in blood circulation SUV5 min,"[5]; blood, 5 min",1.47 SUV
same,activity in blood circulation SUV60 min,"[5]; blood, 60 min",1.10 SUV
same,initial uptake SUV5 min,"[5]; spleen, kidney, muscle, liver and small intestines, 5 min",< 4 SUV
